According to patent US4010149A, “Analogs of LH-RH and process for preparing the same” (Sankyo Company Limited, priority 1974, dated 1977):

System: ovulation
Experiment: Ovulation inducing effect in proestrus rats (subcutaneous)
Type: in vivo, F. Wistar-Imamichi rats
Conditions: subcutaneous injection at 4:00 p.m. on proestrus day; pentobarbital 30 mg/kg i.p. at 1:00 p.m.; five rats per dosage
Experimental: Examination of ovulation inducing effect
F. Wistar-Imamichi rats (body weight: around 250 g) were bred at room temperature (23° ±1° C) under an artificial light (on at 5:00 a.m. and off at 7:00 p.m.). Among these rats, the rats which had more than three times of four days sexual cycle were subjected to the test.
At 1:00 p.m. on proestrus days, pentobarbital sodium salt was intraperitoneally administered into each of rats (in the amount of 30 mg/kg). Then, at 4:00 p.m. of the same day, a test sample dissolved in 0.1 ml of isotonic sodium chloride solution was subcutaneously injected. Between noon and 1:00 p.m. of the next day, the rats were sacrified and the oviduct was immediately taken out. The oviduct was then placed between a couple of slide glasses and examined for ova through a microscope. The test was conducted by employing five rats for a certain dosage of test samples.

Molecule | ED50 (ovulation inducing effect) [μg/body]
CCCC[C@@H](NC(=O)[C@H](Cc1ccc(O)cc1)NC(=O)[C@H](CO)NC(=O)[C@H](Cc1c[nH]c2ccccc12)NC(=O)[C@H](Cc1c[nH]cn1)NC(=O)CN(C)C(C)=O)C(=O)N[C@@H](CC(C)C)C(=O)N[C@@H](CCCNC(=N)N)C(=O)N1CCC[C@H]1C(=O)NCCF [Compound B, N-Acetyl-N-methylglycyl-L-histidyl-L-tryptophyl-L-seryl-L-tyrosyl-D-norleucyl-L-leucyl-L-arginyl-L-proline-2-fluoroethylamide] | 0.0125
CC(C)C[C@H](NC(=O)CNC(=O)[C@H](Cc1ccc(O)cc1)NC(=O)[C@H](CO)NC(=O)[C@H](Cc1c[nH]c2ccccc12)NC(=O)[C@H](Cc1c[nH]cn1)NC(=O)[C@@H]1CCC(=O)N1)C(=O)N[C@@H](CCCNC(=N)N)C(=O)N1CCC[C@H]1C(=O)NCC(N)=O [Natural-type LH-RH (synthesized), L-pyroglutamyl-L-histidyl-L-tryptophyl-L-seryl-L-tyrosylglycyl-L-leucyl-L- arginyl-L-prolylglycine amide, reference compound] | 0.134
N-Acetyl-N-methylglycyl-L-histidyl-L-tryptophyl-L-seryl-L-tyrosyl-D-alanyl-L-leucyl-L-arginyl-L-prolineethylamide [Compound A] | 0.018
